Experimental data taken from PubChem BioAssay AID330 (DTP/NCI, 2004).
“And” between values parts separate entries of the source, which are not always exact repeats. Equal values may be shown once. Toxic doses and inconclusive results are not listed. The calls were made as follows: active = survival T/C of 150% or more; inactive = T/C below 125% in these data.

Tested on: P388 leukemia ip, CD2F1 mice, survival T/C
Assay: NCI In Vivo Anticancer Drug Screen. Data for tumor model P388 Leukemia (intraperitoneal) in CD2F1 (CDF1) mice
Settings: endpoint: median survival time, higher = longer survival
How it was run: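 Mice carrying the transplanted tumor received test compound or vehicle. Survival was recorded in each group, and the value is the treated-group measurement divided by that of the vehicle-treated control group.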

[1] = dose: 100.0 mg/kg/injection, schedule: Q04DX002 (ip), vehicle: saline with Tween-80
[2] = dose: 200.0 mg/kg/injection, schedule: Q04DX002 (ip), vehicle: saline with Tween-80
[3] = dose: 400.0 mg/kg/injection, schedule: Q04DX002 (ip), vehicle: saline with Tween-80
[4] = dose: 25.0 mg/kg/injection, schedule: Q01DX009 (ip), vehicle: saline with Tween-80
[5] = dose: 400.0 mg/kg/injection, schedule: Q04DX003 (ip), vehicle: saline with Tween-80
[6] = dose: 50.0 mg/kg/injection, schedule: Q01DX005 (ip), vehicle: saline with Tween-80
[7] = dose: 200.0 mg/kg/injection, schedule: Q01DX005 (ip), vehicle: saline with Tween-80
[8] = dose: 50.0 mg/kg/injection, schedule: Q01DX009 (ip), vehicle: saline with Tween-80
[9] = dose: 100.0 mg/kg/injection, schedule: Q01DX009 (ip), vehicle: saline with Tween-80
[10] = dose: 200.0 mg/kg/injection, schedule: Q01DX009 (ip), vehicle: saline with Tween-80
[11] = dose: 50.0 mg/kg/injection, schedule: Q01DX005 (ip), vehicle: Klucel (hydroxypropylcellulose) (HPC)
[12] = dose: 100.0 mg/kg/injection, schedule: Q01DX005 (ip), vehicle: Klucel (hydroxypropylcellulose) (HPC)
[13] = dose: 200.0 mg/kg/injection, schedule: Q01DX005 (ip), vehicle: Klucel (hydroxypropylcellulose) (HPC)
[14] = dose: 100.0 mg/kg/injection, schedule: Q01DX005 (ip), vehicle: saline with Tween-80

Measured: T/C

CCOC(=O)C1CSC2(CCCC2)N1 (stereo not drawn)
inactive: [1] 110 % of control | [2] 109 % of control | [3] 100 % of control

Nc1nc(=S)c2ncn(C3OC(COC(=O)c4ccc(Cl)cc4)C(OC(=O)c4ccc(Cl)cc4)C3OC(=O)c3ccc(Cl)cc3)c2[nH]1 (stereo not drawn)
inactive: [4] 122 % of control | dose: 25.0 mg/kg/injection, schedule: Q04DX003 (ip), vehicle: saline with Tween-80 95 % of control | dose: 50.0 mg/kg/injection, schedule: Q04DX003 (ip), vehicle: saline with Tween-80 100 % of control | dose: 100.0 mg/kg/injection, schedule: Q04DX003 (ip), vehicle: saline with Tween-80 104 % of control | dose: 132.0 mg/kg/injection, schedule: Q04DX003 (ip), vehicle: saline with Tween-80 116 % of control | [5] 104 % of control

O=C(NC(O)C(Cl)(Cl)Cl)c1ccccc1 (stereo not drawn)
inactive: dose: 12.5 mg/kg/injection, schedule: Q01DX005 (ip), vehicle: saline with Tween-80 95 % of control | dose: 25.0 mg/kg/injection, schedule: Q01DX005 (ip), vehicle: saline with Tween-80 102 % of control | [6] 100 % of control | [7] 96 % of control

CCOC(=O)N(O)c1ccc(C)cc1
inactive: [1] 109 % of control | [2] 112 % of control | [3] 124 % of control

O=C(NC(C(=O)NC(C(=O)O)C1CC(Cl)=NO1)C1CC(Cl)=NO1)OCC1c2ccccc2-c2ccccc21 (stereo not drawn)
active: dose: 12.5 mg/kg/injection, schedule: Q04DX003 (ip), vehicle: other 150 % of control | dose: 25.0 mg/kg/injection, schedule: Q04DX003 (ip), vehicle: other 160 % of control | dose: 40.0 mg/kg/injection, schedule: Q04DX003 (ip), vehicle: other 172 % of control | dose: 50.0 mg/kg/injection, schedule: Q04DX003 (ip), vehicle: other 222 % of control | dose: 80.0 mg/kg/injection, schedule: Q04DX003 (ip), vehicle: other 201 % of control | dose: 160.0 mg/kg/injection, schedule: Q04DX003 (ip), vehicle: other 158 % of control
inactive: dose: 5.0 mg/kg/injection, schedule: Q04DX003 (ip), vehicle: other 120 % of control

C/C=C1\CN2CCC34c5ccccc5N(C(C)=O)C3C(C=O)C1CC24 (stereo not drawn)
inactive: dose: 7.88 mg/kg/injection, schedule: Q01DX005 (ip), vehicle: saline + Tween-80 + alcohol 101 % of control | dose: 15.75 mg/kg/injection, schedule: Q01DX005 (ip), vehicle: saline + Tween-80 + alcohol 109 % of control | dose: 31.5 mg/kg/injection, schedule: Q01DX005 (ip), vehicle: saline + Tween-80 + alcohol 103 % of control | dose: 63.0 mg/kg/injection, schedule: Q01DX005 (ip), vehicle: saline + Tween-80 + alcohol 103 % of control

C=C(CCCC)C(=O)OC
inactive: [8] 102 % of control | [9] 111 % of control | [10] 108 % of control

CC(C)C(=NN/C=N/S(C)(=O)=O)C(C)C
inactive: dose: 25.0 mg/kg/injection, schedule: Q01DX001 (ip), vehicle: Klucel (hydroxypropylcellulose) (HPC) 92 % of control | dose: 50.0 mg/kg/injection, schedule: Q01DX001 (ip), vehicle: Klucel (hydroxypropylcellulose) (HPC) 112 % of control | dose: 100.0 mg/kg/injection, schedule: Q01DX001 (ip), vehicle: Klucel (hydroxypropylcellulose) (HPC) 97 % of control

CNc1ccc([N+](=O)[O-])cc1/C([O-])=C\[S+](C)(C)=O
inactive: dose: 100.0 mg/kg/injection, schedule: Q04DX003 (ip), vehicle: saline 97 % of control | dose: 200.0 mg/kg/injection, schedule: Q04DX003 (ip), vehicle: saline 106 % of control | dose: 400.0 mg/kg/injection, schedule: Q04DX003 (ip), vehicle: saline 97 % of control

O=C(NNc1c(F)c(F)c(C(F)(F)F)c(F)c1F)c1ccccc1
inactive: [11] 98 % of control | [12] 100 % of control | [13] 91 % of control

COc1ccc(/C=C/C(=O)c2ccc3c(c2)OCO3)cc1OC
inactive: dose: 12.5 mg/kg/injection, schedule: Q01DX009 (ip), vehicle: saline with Tween-80 98 % of control | [4] 98 % of control and 100 % of control | [8] 99 % of control and 101 % of control | [9] 100 % of control and 94 % of control | [10] 103 % of control and 93 % of control | dose: 200.0 mg/kg/injection, schedule: Q04DX003 (ip), vehicle: saline with Tween-80 109 % of control | dose: 300.0 mg/kg/injection, schedule: Q01DX009 (ip), vehicle: saline with Tween-80 93 % of control | dose: 400.0 mg/kg/injection, schedule: Q01DX009 (ip), vehicle: saline with Tween-80 100 % of control | [5] 109 % of control

CC1(C)NC(=O)N(Br)C1=O
inactive: [8] 104 % of control | [9] 100 % of control | [10] 104 % of control

[N-]=[N+]=Nc1ccc(NCCN2C(=O)C=CC2=O)c([N+](=O)[O-])c1
inactive: [6] 103 % of control | [14] 101 % of control | [7] 101 % of control

Nc1cccc(NCc2ccncc2)n1
inactive: dose: 6.25 mg/kg/injection, schedule: Q01DX005 (ip), vehicle: Klucel (hydroxypropylcellulose) (HPC) 98 % of control and 99 % of control and 100 % of control | dose: 12.5 mg/kg/injection, schedule: Q01DX005 (ip), vehicle: Klucel (hydroxypropylcellulose) (HPC) 100 % of control and 101 % of control and 94 % of control | dose: 25.0 mg/kg/injection, schedule: Q01DX005 (ip), vehicle: Klucel (hydroxypropylcellulose) (HPC) 100 % of control (2×) and 96 % of control | [12] 113 % of control

CC(C)=C(Nc1ccccc1)NC(C)C
inactive: dose: 6.25 mg/kg/injection, schedule: Q01DX005 (ip), vehicle: saline 103 % of control | dose: 12.5 mg/kg/injection, schedule: Q01DX005 (ip), vehicle: saline 103 % of control and 104 % of control | dose: 25.0 mg/kg/injection, schedule: Q01DX005 (ip), vehicle: saline 106 % of control and 120 % of control | dose: 50.0 mg/kg/injection, schedule: Q01DX005 (ip), vehicle: saline 118 % of control

COc1cccc2c1C(=O)c1c(O)c3c(c(O)c1C2=O)CC(O)(C(C)=O)CC3OC1CC(N)C(O)C(C)O1 (stereo not drawn) (tested in a mixture with another compound)
inactive: dose: 4.69 mg/kg/injection, schedule: Q04DX003 (ip), vehicle: water 105 % of control and 110 % of control and 114 % of control | dose: 9.38 mg/kg/injection, schedule: Q04DX003 (ip), vehicle: water 114 % of control and 124 % of control and 112 % of control | dose: 9.4 mg/kg/injection, schedule: Q04DX003 (ip), vehicle: water 118 % of control and 103 % of control | dose: 18.75 mg/kg/injection, schedule: Q04DX003 (ip), vehicle: water 114 % of control and 112 % of control and 116 % of control | dose: 37.5 mg/kg/injection, schedule: Q04DX003 (ip), vehicle: water 114 % of control and 124 % of control and 118 % of control | dose: 75.0 mg/kg/injection, schedule: Q04DX003 (ip), vehicle: water 109 % of control [middle of 6 runs] | dose: 150.0 mg/kg/injection, schedule: Q04DX003 (ip), vehicle: water 91 % of control and 98 % of control

Fc1ccc(-c2nc3cc(-c4ccccc4)[nH]n3c2N=Nc2ccccc2)cc1
inactive: [6] 105 % of control | [14] 103 % of control | [7] 108 % of control

Cc1sc2ccccc2c(=O)c1CO
inactive: dose: 60.0 mg/kg/injection, schedule: Q01DX005 (ip), vehicle: saline with Tween-80 97 % of control | dose: 120.0 mg/kg/injection, schedule: Q01DX005 (ip), vehicle: saline with Tween-80 97 % of control | dose: 240.0 mg/kg/injection, schedule: Q01DX005 (ip), vehicle: saline with Tween-80 97 % of control

COc1ccc(-n2c(SC)nccc2=O)cc1
inactive: dose: 100.0 mg/kg/injection, schedule: Q04DX003 (ip), vehicle: Klucel (hydroxypropylcellulose) (HPC) 100 % of control | dose: 200.0 mg/kg/injection, schedule: Q04DX003 (ip), vehicle: Klucel (hydroxypropylcellulose) (HPC) 99 % of control

CCCCCCCNc1nn[nH]n1
inactive: [11] 100 % of control | [12] 104 % of control | [13] 98 % of control

COC(=O)C(Cc1ccccc1)NC(=O)C(C)NC(=O)c1ccc(OC)cc1 (stereo not drawn)
inactive: dose: 100.0 mg/kg/injection, schedule: Q01DX001 (ip), vehicle: saline with Tween-80 100 % of control | dose: 200.0 mg/kg/injection, schedule: Q01DX001 (ip), vehicle: saline with Tween-80 100 % of control | dose: 400.0 mg/kg/injection, schedule: Q01DX001 (ip), vehicle: saline with Tween-80 93 % of control
